Measurements as given in patent US9023789B2, “Amylin analogs and pharmaceutical compositions thereof” (Novo Nordisk A/S, priority 2012, dated 2015).
Values after ≈ are worked out from the molar mass of the structure shown. Where two headings read alike, the source gives them in different places. Numbered stars: 1 amine (or outer) side, 2 acyl side, 3 side chain; on linkers, the order of the positions; unused ones are H or OH. Bridge positions count the residues as written; N and C are the ends. Side chains are listed from the residue outwards. Peptide text beside a SMILES is read from it. * marks the point of attachment. C20 diacid = O=C(O)CCCCCCCCCCCCCCCCCCC(=O)*; γGlu = O=C(O)[C@H](CCC(=O)[*:2])N[*:1]; AEEA = NCCOCCOCC(=O)O

Experiments:
[1] = target: T1, human amylin 3(a) receptor (human calcitonin receptor + RAMP-3) in BHK570 cells (Homo sapiens, UniProt O60896+P30988); assay: ASSAY (II)a functional assay, human amylin receptor (CRE luciferase); format: cell-based
T1 construct: expressed in transfected cells
Procedure, shortened: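 Readout is luminescence from a cAMP-responsive CRE-luc reporter, developed with LucLite for 30 min at room temperature. Cells were treated for 3 h at 37 °C in 10% FBS/DMEM buffered with 10 mM Hepes (pH 7.4).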

[2] = ASSAY (IV) determination of solubility; format: physicochemical
Procedure, shortened: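 Samples of polypeptide, prepared from a water stock at […] and diluted 1:1 into 100 mM buffers spanning pH 3.0 to 8.0, stood 18 hours at room temperature. Polypeptide concentration was then determined by UPLC following centrifugation.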

[3] = target: T2, human amylin receptor (membranes from Amylin 3(a)/CRE-luc cells) (Homo sapiens, UniProt O60896+P30988); assay: ASSAY (V) binding to the human amylin receptor (SPA, 125I-rat amylin);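 also: competition binding of cell membranes (35 ng/µL) mixed with SPA beads in 384-well plates at 40 µL total volume, read by scintillation counting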
T2 construct: expressed in transfected cells
T2 sequence (P30988 25-474): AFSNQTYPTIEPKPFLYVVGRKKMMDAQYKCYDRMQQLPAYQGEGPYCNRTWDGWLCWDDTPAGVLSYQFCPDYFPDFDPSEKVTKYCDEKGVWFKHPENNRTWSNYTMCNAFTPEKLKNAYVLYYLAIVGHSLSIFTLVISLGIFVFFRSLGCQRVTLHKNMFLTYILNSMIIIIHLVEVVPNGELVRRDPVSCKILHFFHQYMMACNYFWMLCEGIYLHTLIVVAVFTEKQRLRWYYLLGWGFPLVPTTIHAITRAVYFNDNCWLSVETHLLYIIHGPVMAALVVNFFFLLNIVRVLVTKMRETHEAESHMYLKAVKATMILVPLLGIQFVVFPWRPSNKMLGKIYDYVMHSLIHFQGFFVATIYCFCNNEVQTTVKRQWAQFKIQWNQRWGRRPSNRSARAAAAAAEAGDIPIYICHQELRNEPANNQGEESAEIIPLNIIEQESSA
T2 sequence (O60896 24-148 partner): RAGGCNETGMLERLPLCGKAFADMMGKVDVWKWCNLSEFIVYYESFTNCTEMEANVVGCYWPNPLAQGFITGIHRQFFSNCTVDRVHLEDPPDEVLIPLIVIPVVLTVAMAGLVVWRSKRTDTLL

[4] = target: T3, rat amylin receptor (rat calcitonin receptor + rat RAMP 3) (Rattus norvegicus, UniProt P32214+Q9JJ73); assay: ASSAY (VI) binding to the rat amylin receptor; conditions: for IC50: binding to rat amylin receptor, read-out: rAmylin-R bind IC50
T3 construct: expressed in transfected cells; host or cells: BHK tk'ts 13 (transient, FuGENE 6), membranes
T3 sequence (P32214 25-479 isoform P32214-2 limits assumed): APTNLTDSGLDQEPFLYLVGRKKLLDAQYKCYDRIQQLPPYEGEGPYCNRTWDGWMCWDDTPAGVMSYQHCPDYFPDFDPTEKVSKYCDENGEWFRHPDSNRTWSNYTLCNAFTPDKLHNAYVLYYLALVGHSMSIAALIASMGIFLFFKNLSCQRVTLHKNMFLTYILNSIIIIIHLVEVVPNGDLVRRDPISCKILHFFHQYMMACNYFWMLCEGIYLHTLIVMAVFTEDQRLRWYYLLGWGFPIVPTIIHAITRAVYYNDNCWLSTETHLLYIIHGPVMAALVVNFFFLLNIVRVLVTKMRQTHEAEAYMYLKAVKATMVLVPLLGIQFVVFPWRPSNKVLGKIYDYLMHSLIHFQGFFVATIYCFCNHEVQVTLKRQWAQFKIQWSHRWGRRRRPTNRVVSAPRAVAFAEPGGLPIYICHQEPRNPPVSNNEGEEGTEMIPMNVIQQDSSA
T3 sequence (Q9JJ73 23-147 partner): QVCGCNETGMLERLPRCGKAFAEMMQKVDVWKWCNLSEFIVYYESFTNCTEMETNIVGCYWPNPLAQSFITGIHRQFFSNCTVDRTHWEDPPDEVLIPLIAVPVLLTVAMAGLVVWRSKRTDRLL
Procedure, shortened: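 Membranes for this rat amylin receptor binding assay came from BHK tk′ts 13 cells. The cells were transiently transfected with rat calcitonin receptor using the FuGENE® 6 reagent from Roche, as the manufacturer recommends. The cells were collected approximately 48 hours after transfection, and membranes were then prepared.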

rat calcitonin receptor = target: T4, rat calcitonin receptor (Rattus norvegicus, UniProt P32214); assay: ASSAY (VIII) binding to the rat calcitonin receptor; conditions: Table 7, read-out: rCTR bind IC50
T4 construct: expressed in transfected cells; host or cells: BHK tk'ts 13 (transient, FuGENE 6), membranes
T4 sequence (P32214 25-479 isoform P32214-2 limits assumed): T3 sequence (P32214 25-479 isoform P32214-2 limits assumed)
Procedure, shortened: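 Cell membranes for binding came from BHK tk′ts 13 cells harvested approximately 48 hours after transient transfection with the rat receptor.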

[5] = hCTR funct. EC50 divided by hAmylin-R funct. EC50
[6] = hCTR funct. EC50 over hAmylin-R funct. EC50
[7] = human functional selectivity: hCTR funct. EC50 / hAmylin-R funct. EC50
[8] = bistrispropane buffer, pH 6.5, read-out: Solubility pH 6.5 Concentration
[9] = bistrispropane buffer, pH 7.5, read-out: Solubility pH 7.5 Concentration
[10] = bistrispropane buffer, pH 6.0, read-out: Solubility pH 6.0 Concentration
[11] = bistrispropane buffer, pH 7.0, read-out: Solubility pH 7.0 Concentration
[12] = bistrispropane buffer, pH 8.0, read-out: Solubility pH 8.0 Concentration
[13] = glycylglycine buffer, pH 3.0, read-out: Solubility pH 3.0 Concentration
[14] = glycylglycine buffer, pH 4.0, read-out: Solubility pH 4.0 Concentration
[15] = glycylglycine buffer, pH 5.0, read-out: Solubility pH 5.0 Concentration
[16] = Table 5, selectivity, hCTR bind IC50 / hAmylin-R bind IC50
[17] = Table 5a, selectivity, hCTR bind IC50 / hAmylin-R bind IC50
[18] = Table 5b, selectivity, hCTR bind IC50 / hAmylin-R bind IC50
[19] = Table 5c, selectivity, hCTR bind IC50 / hAmylin-R bind IC50
[20] = Table 7, human binding selectivity, included for comparison
[21] = Table 7a (preferred compounds), human binding selectivity, included for comparison
[22] = ratio of human calcitonin receptor binding IC50 to human amylin receptor binding IC50
[23] = Table 7, rat binding selectivity, rCTR IC50 / rAmylin-R IC50
[24] = Table 7a (preferred compounds), rat binding selectivity, rCTR IC50 / rAmylin-R IC50
[25] = ratio of rCTR bind IC50 to rAmylin-R bind IC50

Ratio hCT/hAmylin funct. [1, 5]	Ratio hCT/hAmylin funct. [1, 6]	Ratio hCT/hAmylin funct. [1, 7]	solubility at 18 h [2, 8] [µM]	solubility at 18 h [2, 9] [µM]	solubility at 18 h [2, 10] [µM]	solubility at 18 h [2, 11] [µM]	solubility at 18 h [2, 12] [µM]	solubility at 18 h [2, 13] [µM]	solubility at 18 h [2, 14] [µM]	solubility at 18 h [2, 15] [µM]	Ratio hCT/hAmylin binding [3, 16]	Ratio hCT/hAmylin binding [3, 17]	Ratio hCT/hAmylin binding [3, 18]	Ratio hCT/hAmylin binding [3, 19]	Ratio hCT/hAmylin binding [3, 20]	Ratio hCT/hAmylin binding [3, 21]	Ratio hCT/hAmylin binding [3, 22]	IC50 ([4]; Table 7) [nM]	Ratio rCT/rAmylin binding [4, 23]	SMILES	other results
22.6	22.6	22.6	≥ 200	≥ 200	≥ 200	≥ 200	≥ 200	≥ 200	≥ 200	≥ 200	41.3	41.3	41.3	41.3	41.3	41.3	41.3	0.614	146.8	CC[C@H](C)[C@H](NC(=O)[C@H](C)NC(=O)CNC(=O)[C@H](Cc1ccccc1)NC(=O)[C@H](CC(N)=O)NC(=O)[C@@H]1CCCN1C(=O)[C@H](CO)NC(=O)[C@H](CO)NC(=O)[C@H](Cc1c[nH]cn1)NC(=O)[C@H](CCCNC(=N)N)NC(=O)[C@H](CC(C)C)NC(=O)[C@H](Cc1ccccc1)NC(=O)[C@H](CC(N)=O)NC(=O)[C@H](C)NC(=O)[C@H](CC(C)C)NC(=O)[C@H](CCCNC(=N)N)NC(=O)[C@H](CCC(N)=O)NC(=O)[C@@H](NC(=O)[C@H](C)NC(=O)[C@@H]1CSSC[C@H](NC(=O)[C@@H](N)CCCCNC(=O)CC[C@H](NC(=O)CCCCCCCCCCCCCCCCCCC(=O)O)C(=O)O)C(=O)N[C@@H](CC(N)=O)C(=O)N[C@@H]([C@@H](C)O)C(=O)N[C@@H](C)C(=O)N[C@@H]([C@@H](C)O)C(=O)N1)[C@@H](C)O)C(=O)N1CCC[C@H]1C(=O)N[C@@H](CO)C(=O)N[C@@H](CO)C(=O)N[C@H](C(=O)N[C@@H](CC(N)=O)C(=O)N[C@H](C(=O)NCC(=O)N[C@@H](CO)C(=O)N[C@@H](CCC(=O)O)C(=O)N[C@H](C(=O)N[C@@H](Cc1ccc(O)cc1)C(N)=O)[C@@H](C)O)C(C)C)[C@@H](C)O [Example 27]	Ratio rCT/rAmylin binding [4, 24]: 146.8; Ratio rCT/rAmylin binding [4, 25]: 146.8; IC50 (rat calcitonin receptor): 90.2 nM
17.0	17.0	17.0	≥ 200	≥ 200	≥ 200	≥ 200	110 (≈ 518 µg/mL)	≥ 200	≥ 200	≥ 200	26.8	26.8	26.8	26.8	26.8	26.8	26.8	0.623	67.1	CC[C@H](C)[C@H](NC(=O)[C@H](C)NC(=O)CNC(=O)[C@H](Cc1ccccc1)NC(=O)[C@H](CC(N)=O)NC(=O)[C@@H]1CCCN1C(=O)[C@H](CO)NC(=O)[C@H](CO)NC(=O)[C@H](Cc1c[nH]cn1)NC(=O)[C@H](CCCNC(=N)N)NC(=O)[C@H](CC(C)C)NC(=O)[C@H](Cc1ccccc1)NC(=O)[C@H](CC(N)=O)NC(=O)[C@H](C)NC(=O)[C@H](CC(C)C)NC(=O)[C@H](CCCNC(=N)N)NC(=O)[C@H](CCC(N)=O)NC(=O)[C@@H](NC(=O)[C@H](C)NC(=O)[C@@H]1CSSC[C@H](NC(=O)[C@H](CCCNC(=N)N)NC(=O)[C@@H](N)CCCCNC(=O)COCCOCCNC(=O)CC[C@H](NC(=O)CCCCCCCCCCCCCCCCCCC(=O)O)C(=O)O)C(=O)N[C@@H](CC(N)=O)C(=O)N[C@@H]([C@@H](C)O)C(=O)N[C@@H](C)C(=O)N[C@@H]([C@@H](C)O)C(=O)N1)[C@@H](C)O)C(=O)N1CCC[C@H]1C(=O)N[C@@H](CO)C(=O)N[C@@H](CO)C(=O)N[C@H](C(=O)N[C@@H](CC(N)=O)C(=O)N[C@H](C(=O)NCC(=O)N[C@@H](CO)C(=O)N[C@@H](Cc1c[nH]cn1)C(=O)N[C@H](C(=O)N[C@@H](Cc1ccc(O)cc1)C(N)=O)[C@@H](C)O)C(C)C)[C@@H](C)O [Example 45] (H-K([AEEA-γGlu-C20 diacid])RCNTATCATQRLANFLRHSSPNFGAIPSSTNVGSHTY-NH2; disulfide 3-8 (inferred))	Ratio rCT/rAmylin binding [4, 24]: 67.1; Ratio rCT/rAmylin binding [4, 25]: 67.1; IC50 (rat calcitonin receptor): 41.8 nM
6.5	6.5	6.5	≥ 200	≥ 200	≥ 200	≥ 200	≥ 200	≥ 200	≥ 200	≥ 200	28.5	28.5	28.5	28.5	28.5	28.5	28.5	1.06	81.1	CC[C@H](C)[C@H](NC(=O)[C@H](C)NC(=O)CNC(=O)[C@H](Cc1ccccc1)NC(=O)[C@H](CC(N)=O)NC(=O)[C@@H]1CCCN1C(=O)[C@H](CO)NC(=O)[C@H](CO)NC(=O)[C@H](Cc1c[nH]cn1)NC(=O)[C@H](CCCNC(=N)N)NC(=O)[C@H](CC(C)C)NC(=O)[C@H](Cc1ccccc1)NC(=O)[C@H](CCC(=O)O)NC(=O)[C@H](C)NC(=O)[C@H](CC(C)C)NC(=O)[C@H](CCCNC(=N)N)NC(=O)[C@H](CCC(N)=O)NC(=O)[C@@H](NC(=O)[C@H](C)NC(=O)[C@@H]1CSSC[C@H](NC(=O)[C@@H](N)CCCCNC(=O)CC[C@H](NC(=O)CCCCCCCCCCCCCCCCCCC(=O)O)C(=O)O)C(=O)N[C@@H](CC(N)=O)C(=O)N[C@@H]([C@@H](C)O)C(=O)N[C@@H](C)C(=O)N[C@@H]([C@@H](C)O)C(=O)N1)[C@@H](C)O)C(=O)N1CCC[C@H]1C(=O)N[C@@H](CO)C(=O)N[C@@H](CO)C(=O)N[C@H](C(=O)N[C@@H](CC(N)=O)C(=O)N[C@H](C(=O)NCC(=O)N[C@@H](CCCNC(=N)N)C(=O)N[C@@H](CCC(=O)O)C(=O)N[C@H](C(=O)N[C@@H](Cc1ccc(O)cc1)C(N)=O)[C@@H](C)O)C(C)C)[C@@H](C)O [Example 108] (H-K([γGlu-C20 diacid])CNTATCATQRLAEFLRHSSPNFGAIPSSTNVGRETY-NH2; disulfide 2-7; N-terminus assumed)	EC50 ([1]; human amylin receptor functional potency, assay (II), read-out: hAmylin-R funct. EC50): 0.421 nM; IC50 ([3]; Table 4, read-out: hAmylin-R bind IC50): 0.232 nM; Ratio rCT/rAmylin binding [4, 24]: 81.1; Ratio rCT/rAmylin binding [4, 25]: 81.1; IC50 (rat calcitonin receptor): 86.1 nM
